Holding throughout (assay type): cell-based, mycobacteria of tuberculosis
Test [1] concerns Strain resistant to streptomycin and rifamycin. The settings on record: taken from patients, Sverdlovsk Regional SRI of Phthisiopulmonology 1998.
In test [2] the test system is Strain resistant to isoniazid. The settings on record: taken from patients, Sverdlovsk Regional SRI of Phthisiopulmonology 1998.
In a further test the test system is Resistant to rifamycin. The test can be described thus: Bacteriostatic activity on patient strains (Table 4). The settings on record: taken from patients, Central SRI of Tuberculosis RAMS 1997.
Test [3] concerns Semiresistant (resistant to streptomycin, rifamycin and isoniazid). The test is described as above. The settings on record: taken from patients, Central SRI of Tuberculosis RAMS 1997.
Another test relates to Resistant to isoniazid. Described as above. The settings on record: taken from patients, Central SRI of Tuberculosis RAMS 1997.
Test [4] concerns Resistant to streptomycin. The test is described as above. The settings on record: taken from patients, Central SRI of Tuberculosis RAMS 1997.

Take `O=C(NN=Cc1ccccc1OCCCCOCCCCOc1ccccc1C=NNC(=O)c1cccnc1)c1cccnc1` [1,9-Bis(2-nicotinoyl hydrazonomethylphenoxy)-5-oxanonon]: the Inhibiting level in test [1] is 0.4 µg/mL; in test [2], over 5.0 µg/mL.

As to `CO[C@H]1/C=C/O[C@@]2(C)Oc3c(C)c(O)c4c(O)c(cc(O)c4c3C2=O)NC(=O)/C(C)=C\C=C\[C@H](C)[C@H](O)[C@@H](C)[C@@H](O)[C@@H](C)[C@H](OC(C)=O)[C@@H]1C` [Rifamycin, reference compound], in test [1], the Inhibiting level is 20.0 µg/mL.

`[H]/N=C(/N)N[C@H]1[C@H](O)[C@@H](O)[C@H](O[C@@H]2O[C@@H](C)[C@](O)(C=O)[C@H]2O[C@@H]2O[C@@H](CO)[C@H](O)[C@@H](O)[C@@H]2NC)[C@@H](N/C(N)=N\[H])[C@@H]1O` [Streptomycin, reference compound]: the Inhibiting level in test [1] was 10.0 µg/mL; in test [2], over 50.0 µg/mL.

As for `O=Cc1ccc(Cl)cc1OCCOc1cc(Cl)ccc1C=O` [1,2-Bis(2-formyl-5-chlorphenoxy)-ethane], the figures for the Inhibiting level in test [1] and in test [2] were 0.4 µg/mL and 5.0 µg/mL, respectively.

Regarding `NNC(=O)c1ccncc1` [Isoniazid, hydrazide of isonicotinic acid, reference compound], the Inhibiting level in the test on Resistant to rifamycin is 0.29 µg/mL; in test [1], 0.1 µg/mL; in test [3], 2.125 µg/mL; in test [2], 5.0 µg/mL; in the test with Resistant to isoniazid, over 100 µg/mL; in test [4], 0.29 µg/mL.

On to `O=C(NN=Cc1c(OCCOc2ccc3ccccc3c2C=NNC(=O)c2ccccc2)ccc2ccccc12)c1ccccc1` [1,2-Bis[2(benzoyl hydrazonomethylnaphthoxy-2)]-ethane], for which the Inhibiting level turned out to be 0.4 µg/mL in test [1] and 5.0 µg/mL in test [2].

In the case of `O=C(NN=Cc1ccccc1OCCOCCOc1ccccc1C=NNC(=O)c1ccncc1)c1ccncc1` [1,5-Bis(2-isonicotinoyl hydrazonomethylphenoxy)-3-oxapentane], the Inhibiting level is 0.20 µg/mL with Resistant to rifamycin, 1.57 µg/mL in test [3], 18.80 µg/mL in the test on Resistant to isoniazid and 1.56 µg/mL in test [4].

With `COc1cc(C=NNC(=O)c2ccccc2)ccc1OCCOc1ccc(C=NNC(=O)c2ccccc2)cc1OC` [1,2-Bis(2-methoxy-4-benzoyl hydrazonomethylphenoxy)-ethane], the results for the Inhibiting level in test [1] and in test [2] were 0.8 µg/mL and over 5.0 µg/mL, respectively.

(Values after EP1081131A1 (priority 1998, dated 1999).)
